The text below walks through data of PubChem BioAssay (NCI).

Molecules are shown by their SMILES. Values joined by “and” are separate entries in the source; they are usually repeats but may differ in a detail not shown here. Equal entries are not always repeated.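 The compound was tested at five concentrations on cells cultured in 96-well plates, with a 48-hour exposure period. At the GI50, growth is halved. TGI marks complete inhibition of growth.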

Test in all cases: growth of human tumour cells (NCI), 48 h
The test system of test [1] is UO-31 renal.
For test [2], the system named is KM12 colon.
The test system of test [3] is SR leukemia.
For test [4], the system named is NCI/ADR-RES ovarian.
Test [5] has as its system SK-OV-3 ovarian.
Test [6] deals with UACC-257 melanoma.
The subject of test [7] is LOX IMVI melanoma.
For test [8], the system named is MALME-3M melanoma.
Test [9] relates to SK-MEL-28 melanoma.
Test [10] concerns NCI-H460 lung.

Regarding `c1ccc(-c2cc3n4c(-c5ccccc5)nn(-c5ccccc5)c4cnc-3n2)cc1`, the GI50 was greater than 50 µM in [1]; greater than 50 µM in test [2]; greater than 50000 nM in test [3]; greater than 50 µM in test [4]; 11.8 µM in [5]; greater than 50 µM in test [6]. Further, the results for the GI50 in test [7] and in test [8] were greater than 50 µM and 4.58 µM, respectively. The TGI in test [1], in test [2], in [3], in test [4], in [5] and in test [6] was greater than 50 µM each time. The TGI in test [7] and in [8] was greater than 50 µM in each case.
For the compound `CCSc1nc(N)c2cnn(CC)c2n1`, the GI50 is 20.4 µM in test [9]; 23.9 µM in [10]; 7.24 µM in test [1]; 3.15 µM in test [2]; 2270 nM in [3]; 18.5 µM in [4]. Further, the GI50 was 23.9 µM in test [5], 10.2 µM in test [6], 2.23 µM in test [7] and 18 µM in test [8]. For the same compound, the TGI in test [9] is greater than 100 µM; in test [10], 78 µM; in [1] it was greater than 100 µM; in test [2], greater than 100 µM; in [3], 48.9 µM; in test [4], 63.3 µM. The TGI was greater than 100 µM in [5], 36.5 µM in [6], 8 µM in [7] and 59 µM in test [8].
As for `Cc1c2ccccc2c(C)n2c1nc1cc(Cl)c(Cl)cc12`, the GI50 in test [9] was greater than 100 µM; in [10] it was 27.4 µM; in test [1], 8.14 µM; in test [2], greater than 100 µM; in test [3] it was 12900 nM; in test [4] it was greater than 100 µM. The GI50 is greater than 100 µM in [5], greater than 100 µM in [6], 25.2 µM in [7] and greater than 100 µM in [8]. Also, the TGI is greater than 100 µM in [9]; greater than 100 µM in test [10]; greater than 100 µM in test [1]; greater than 100 µM in test [2]; 44.7 µM in test [3]; greater than 100 µM in test [5]. For the same compound, the TGI in [6] and in test [7] was greater than 100 µM throughout.
In the case of `CCOC(=O)N(O)c1ccc(/C=C/c2ccccc2)cc1`, the GI50 in [9] was 17.6 µM; in [10] it was 0.913 µM; in test [1], 6.03 µM; in [2], 10.6 µM; in [3] it was 4100 nM; in [4], 13 µM. Moreover, the GI50 in test [5] was 23.6 µM; in [6], 0.421 µM; in test [7], 7.22 µM; in [8], 19.5 µM. For the same compound, the TGI in test [9] is 59.8 µM; in test [10], 15.6 µM; in test [1], 36.4 µM; in test [2], 36.6 µM; in [3], 28.2 µM; in test [4] it was 88.6 µM. Further, the TGI in [5] was greater than 100 µM; in test [6], 2.49 µM; in test [7], 20.6 µM; in test [8], 61.4 µM.
With `CCOc1ccccc1N=Cc1c2ccccc2cc2ccccc12`, the TGI is greater than 73.5 µM in test [9]; greater than 100 µM in test [10]; 43.6 µM in [1]; 49.3 µM in [2]; 61.7 µM in test [3]; greater than 66.1 µM in test [4]. Moreover, the TGI in test [5] is 68.6 µM; in [6] it was greater than 74.4 µM; in test [7], 38.2 µM.
`Cc1c(Cl)cccc1NC(=O)C(=O)c1c(O)c2ccc(O)cc2oc1=O`: the TGI in test [9], in test [10], in test [1], in [2], in [3] and in test [5] was greater than 100 µM throughout. Further, the TGI in [6], in test [7] and in [8] was greater than 100 µM throughout.
For the compound `C=Cc1cc(OC)c2c(c1)c(=O)oc1c2cc(OC)c2c(O)ccc(C3OC(C(C)O)C(O)C3O)c21` (configuration not stated), the GI50 in [9] was 0.0225 µM; in test [10], 0.00573 µM; in test [1], 0.00262 µM; in test [2], 0.00674 µM; in test [3], 0.0483 nM and 0.209 nM; in test [4] it was 0.012 µM. The figures for the GI50 in test [5], in test [6] and in [8] were 0.0165 µM, 0.0269 µM and 0.0107 µM, respectively. Further, the TGI in test [9] came out at 0.0525 µM; in [10] it was 0.166 µM; in [1], 0.0399 µM; in test [2], 0.0499 µM; in test [3] it was 0.00406 µM; in [4], 0.271 µM. The results for the TGI in test [5], in [6] and in test [8] were 0.718 µM, 0.0805 µM and 0.0366 µM, respectively.
Turning to `CC1=C2C3OC(=O)C(C)C3C(O)C[C@@]2(C)C(=O)CC1` (some centres not stated), the TGI in test [9], in [10], in test [1], in test [2], in test [3] and in test [5] was greater than 100 µM throughout. Besides, the TGI in test [6], in [7] and in test [8] was greater than 100 µM each time.
Consider `COC(=O)C#CC(N)=O`, for which the TGI is 47.5 µM in test [9]; greater than 100 µM in test [10]; greater than 100 µM in test [1]; greater than 100 µM in [2]; 60.7 µM in [3]; greater than 100 µM in test [5]. Also, the TGI is greater than 70.7 µM in test [6], greater than 50.4 µM in test [7] and 19.1 µM in test [8].
In the case of `CN(C)C(=S)/N=c1\ss/c(=N\S(=O)(=O)c2ccccc2)n1C`, the TGI in [9], in [10], in test [1], in test [2], in test [3] and in test [5] was greater than 100 µM each time. The TGI in [6], in [7] and in test [8] was greater than 100 µM each time.
